Source: publication PMC8184911, “A small molecule HIF-1α stabilizer that accelerates diabetic wound healing” (Nature Communications, 2021)

Biological target: T1, Von Hippel-Lindau (VHL) (Homo sapiens, UniProt P40337)
T1 construct: human recombinant VHL:ElonginB:ElonginC (VBC) complex; with ElonginB, ElonginC
Assay: fluorescence-based protein thermal shift assay of purified VBC ([…] VH298, positive control, shift ca. […] °C)
Assay type: binding
Conditions: read-out: fluorescence-based protein thermal shift assay of purified VBC (100 μM VH298, po)

T1 sequence (P40337 whole entry): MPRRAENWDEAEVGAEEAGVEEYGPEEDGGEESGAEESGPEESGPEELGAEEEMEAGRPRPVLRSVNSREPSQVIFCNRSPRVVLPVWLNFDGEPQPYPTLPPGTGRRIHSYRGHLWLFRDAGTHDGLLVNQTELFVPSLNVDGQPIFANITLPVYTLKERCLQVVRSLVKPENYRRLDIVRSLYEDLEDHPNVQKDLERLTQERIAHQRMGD
T1 sequence (Q15370 whole entry partner): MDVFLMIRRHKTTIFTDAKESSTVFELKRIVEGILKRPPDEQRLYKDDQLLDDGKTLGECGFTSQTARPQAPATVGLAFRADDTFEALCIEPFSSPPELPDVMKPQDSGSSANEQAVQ
T1 sequence (Q15369 whole entry partner): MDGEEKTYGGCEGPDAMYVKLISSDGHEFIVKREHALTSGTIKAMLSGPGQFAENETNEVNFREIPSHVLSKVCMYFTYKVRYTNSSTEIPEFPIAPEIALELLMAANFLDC

Molecule `Cc1ncsc1-c1ccc(CNC(=O)[C@@H]2C[C@@H](O)CN2C(=O)[C@@H](NC(=O)C2(C#N)CC2)C(C)(C)C)cc1` [VH298, (2 S, 4 R)-1-((S)-2-(1-cyanocyclopropanecarboxamido)-3,3-dimethylbutanoyl)-4-hydroxy-N-(4-(4-methylthiazol-5-yl)benzyl) pyrrolidine-2-carboxamide] has a ΔTm at 100 µM of about 5 °C.
